Test results: PMC3530649 (Journal of the American Chemical Society, 2012)

How the values were obtained:
[1] = target: T1, (E)-β-farnesene synthase (EBFS) (Mentha x piperita, UniProt O48935); assay: steady-state inhibition, radiometric microassay; format: biochemical
T1 sequence (O48935 1-550): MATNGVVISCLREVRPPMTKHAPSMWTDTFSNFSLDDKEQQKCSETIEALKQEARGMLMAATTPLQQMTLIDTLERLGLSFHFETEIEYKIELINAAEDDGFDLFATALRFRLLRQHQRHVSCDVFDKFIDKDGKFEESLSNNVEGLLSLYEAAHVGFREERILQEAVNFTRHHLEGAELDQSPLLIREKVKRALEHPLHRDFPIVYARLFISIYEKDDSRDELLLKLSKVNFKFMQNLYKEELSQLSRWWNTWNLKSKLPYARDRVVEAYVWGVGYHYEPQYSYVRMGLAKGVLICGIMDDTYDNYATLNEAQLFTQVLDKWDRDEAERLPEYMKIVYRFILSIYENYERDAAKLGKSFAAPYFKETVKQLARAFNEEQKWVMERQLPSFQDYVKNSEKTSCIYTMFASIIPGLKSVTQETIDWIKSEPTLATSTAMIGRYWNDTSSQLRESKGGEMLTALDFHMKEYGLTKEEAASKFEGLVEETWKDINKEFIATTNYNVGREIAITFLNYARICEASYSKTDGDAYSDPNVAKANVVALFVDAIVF

purified protein = substrate: CC(C)=CCC/C(C)=C/CC/C(C)=C/CO[P@@](=O)(O)OP(=O)(O)O; assay: purified protein; details: labelled compound (tritiated)
[2] = substrate: C=CC(C)(CC/C=C(\C)CCC=C(C)C)OP(=O)(O)OP(=O)(O)O; assay: steady-state kinetics, radiometric microassay; format: biochemical, Mentha x piperita; details: labelled compound ((3RS)-(1Z)-trans-[1-3H1]NDP), racemic
[3] = substrate: CC(C)=CCC/C(C)=C/CC/C(C)=C(\F)COP(=O)(O)OP(=O)(O)O; assay: steady-state kinetics, radiometric microassay; format: biochemical, Mentha x piperita; details: labelled compound ((1RS)-2-fluoro[1-3H1]FDP)

Q: Which Ki [1] does the source give for CC(C)=CCC/C(C)=C/CC/C(C)=C(\F)COP(=O)(O)OP(=O)(O)O [2F-3, (2Z,6E)-2-fluorofarnesyl diphosphate] here?
A: 1300 ± 100 nM

Q: Which Ki [1] does the source give for CC(C)=CCC/C(C)=C/CC/C(=C/COP(=O)(O)OP(=O)(O)O)C(F)(F)F [3CF3-3, (6E)-3-trifluoromethylfarnesyl diphosphate] here?
A: 1600 ± 200 nM

Q: CC(C)=CCC/C(C)=C/CCC(=CCOP(=O)(O)OP(=O)(O)O)CF [3CH2F-3, (6E)-3-fluoromethylfarnesyl diphosphate] was tested. Which Ki [1] did it give?
A: 2300 ± 200 nM

B1: (E)-β-farnesene synthase (EBFS) (Mentha x piperita) (protein)
chain: T1 sequence (O48935 1-550)
Q: How did the Km (purified protein) turn out when B1 was run?
A: 1.8 ± 0.2 µM

Q: And the Km [2]?
A: 25.0 ± 4.2 µM

Q: And the Km [3]?
A: 1.6 ± 0.2 µM
